Experimental data as given in US6358885B1, “Substituted phenylheterocyclic herbicides” (Mississippi State University, priority 1992, dated 2002).

What was measured:
lambsquarters = assay: Test C preemergence/postemergence greenhouse plant response rating 0 to 100; type: in vivo, Chenopodium album; conditions: for Plant response rating Lambsquarters: 0 to 100 scale
How it was run: (§1)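 Compounds in non-phytotoxic solvent applied preemergence to sandy loam one day after planting, postemergence at the 1–4 leaf stage, or to ~2.5 cm floodwater over silt loam.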

soybean = assay: as above; type: in vivo, Glycine max; conditions: for Plant response rating, Soybean: 0 to 100 scale
How it was run: as §1

morningglory [1] = assay: as above; type: in vivo, Ipomoea hederacea; conditions: for Plant response rating, Morningglory: 0 to 100 scale
How it was run: as §1

barley = assay: as above; type: in vivo, Hordeum vulgare; conditions: for Plant response rating Barley Igri: 0 to 100 scale
How it was run: as §1

corn = assay: Test B preemergence/postemergence greenhouse plant response rating 0 to 10; type: in vivo, Zea mays; conditions: 0 to 10 scale
How it was run: (§2)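 Postemergence treatment of plants two to eighteen cm tall ran alongside preemergence treatment of planted seed, each using compound in a non-phytotoxic solvent.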

crabgrass = assay: as above; type: in vivo, Digitaria spp.; conditions: 0 to 10 scale
How it was run: as §2

rape = assay: as above; type: in vivo, Brassica napus; conditions: 0 to 10 scale
How it was run: as §2

cheatgrass = assay: as above; type: in vivo, Bromus secalinus; conditions: 0 to 10 scale
How it was run: as §2

giant foxtail = assay: as above; type: in vivo, Setaria faberii; conditions: 0 to 10 scale
How it was run: as §2

barnyardgrass = assay: as above; type: in vivo, Echinochloa crus-galli; conditions: 0 to 10 scale
How it was run: as §2

velvetleaf = assay: as above; type: in vivo, Abutilon theophrasti; conditions: 0 to 10 scale
How it was run: as §2

morningglory [2] = assay: as above; type: in vivo, Ipomoea hederacea; conditions: 0 to 10 scale
How it was run: as §2

chickweed = assay: as above; type: in vivo, Stellaria media; conditions: 0 to 10 scale
How it was run: as §2

Fc1cc(Cl)ccc1-c1nn2c(c1Br)CCCC2 [Compound 52]
10: Plant response rating (0 to 100), Soybean (soybean; POSTEMERGENCE, Rate 2 g/ha) | Plant response rating (0 to 100), Barley Igri (barley; POSTEMERGENCE, Rate 2 g/ha) | Plant response rating Barley Igri (barley; PREEMERGENCE, 125 g/ha) | Plant response rating, Crabgrass (crabgrass; Rate 200 g/ha, PREEMERGENCE) | Plant response rating, Rape (rape; Rate 200 g/ha, POSTEMERGENCE) | Plant response rating, Cheatgrass (cheatgrass; Rate 200 g/ha, PREEMERGENCE) | Plant response rating, Giant foxtail (giant foxtail; Rate 200 g/ha, PREEMERGENCE) | Plant response rating, Velvetleaf (velvetleaf; Rate 200 g/ha, POSTEMERGENCE) | Plant response rating, Velvetleaf (velvetleaf; Rate 200 g/ha, PREEMERGENCE)
100: Plant response rating Lambsquarters (lambsquarters; PREEMERGENCE, 125 g/ha) | Plant response rating, Morningglory (morningglory [1]; POSTEMERGENCE, 125 g/ha)
8: Plant response rating, Corn (corn; POSTEMERGENCE, Rate 200 g/ha) | Plant response rating, Rape (rape; POSTEMERGENCE, Rate 50 g/ha) | Plant response rating, Velvetleaf (velvetleaf; PREEMERGENCE, Rate 50 g/ha)
20: Plant response rating (0 to 100), Morningglory (morningglory [1]; POSTEMERGENCE, Rate 2 g/ha) | Plant response rating (0 to 100), Barley Igri (barley; Rate 8 g/ha, POSTEMERGENCE)
30: Plant response rating (0 to 100), Soybean (soybean; Rate 8 g/ha, POSTEMERGENCE) | Plant response rating (0 to 100), Morningglory (morningglory [1]; Rate 8 g/ha, POSTEMERGENCE)
2: Plant response rating, Crabgrass (crabgrass; PREEMERGENCE, Rate 50 g/ha) | Plant response rating, Morningglory (morningglory [2]; Rate 200 g/ha, PREEMERGENCE)
40: Plant response rating (0 to 100), Soybean (soybean; Rate 31 g/ha, POSTEMERGENCE) | Plant response rating (0 to 100), Barley Igri (barley; Rate 31 g/ha, POSTEMERGENCE)
4: Plant response rating, Corn (corn; Rate 200 g/ha, PREEMERGENCE) | Plant response rating, Cheatgrass (cheatgrass; POSTEMERGENCE, Rate 50 g/ha)
70: Plant response rating, Soybean (soybean; POSTEMERGENCE, 125 g/ha)
1: Plant response rating, Corn (corn; PREEMERGENCE, Rate 50 g/ha) | Plant response rating, Rape (rape; PREEMERGENCE, Rate 50 g/ha)
50: Plant response rating (0 to 100), Lambsquarters (lambsquarters; Rate 31 g/ha, PREEMERGENCE) | Plant response rating (0 to 100), Morningglory (morningglory [1]; Rate 31 g/ha, POSTEMERGENCE) | Plant response rating Barley Igri (barley; POSTEMERGENCE, 125 g/ha)
0: Plant response rating (0 to 100), Lambsquarters (lambsquarters; PREEMERGENCE, Rate 2 g/ha) | Plant response rating (0 to 100), Lambsquarters (lambsquarters; Rate 8 g/ha, PREEMERGENCE) | Plant response rating, Soybean (soybean; PREEMERGENCE, 125 g/ha) | Plant response rating (0 to 100), Soybean (soybean; PREEMERGENCE, Rate 2 g/ha) | Plant response rating (0 to 100), Soybean (soybean; Rate 8 g/ha, PREEMERGENCE) | Plant response rating (0 to 100), Soybean (soybean; Rate 31 g/ha, PREEMERGENCE) | Plant response rating, Morningglory (morningglory [1]; PREEMERGENCE, 125 g/ha) | Plant response rating (0 to 100), Morningglory (morningglory [1]; PREEMERGENCE, Rate 2 g/ha) | Plant response rating (0 to 100), Morningglory (morningglory [1]; Rate 8 g/ha, PREEMERGENCE) | Plant response rating (0 to 100), Morningglory (morningglory [1]; Rate 31 g/ha, PREEMERGENCE) | Plant response rating (0 to 100), Barley Igri (barley; PREEMERGENCE, Rate 2 g/ha) | Plant response rating (0 to 100), Barley Igri (barley; Rate 8 g/ha, PREEMERGENCE) | Plant response rating (0 to 100), Barley Igri (barley; Rate 31 g/ha, PREEMERGENCE) | Plant response rating, Morningglory (morningglory [2]; PREEMERGENCE, Rate 50 g/ha)
5: Plant response rating, Giant foxtail (giant foxtail; POSTEMERGENCE, Rate 50 g/ha) | Plant response rating, Barnyardgrass (barnyardgrass; PREEMERGENCE, Rate 50 g/ha) | Plant response rating, Chickweed (chickweed; POSTEMERGENCE, Rate 50 g/ha)
9: Plant response rating, Rape (rape; Rate 200 g/ha, PREEMERGENCE) | Plant response rating, Giant foxtail (giant foxtail; PREEMERGENCE, Rate 50 g/ha) | Plant response rating, Barnyardgrass (barnyardgrass; POSTEMERGENCE, Rate 50 g/ha) | Plant response rating, Barnyardgrass (barnyardgrass; POSTEMERGENCE, Rate 200 g/ha) | Plant response rating, Barnyardgrass (barnyardgrass; Rate 200 g/ha, PREEMERGENCE) | Plant response rating, Velvetleaf (velvetleaf; POSTEMERGENCE, Rate 50 g/ha) | Plant response rating, Morningglory (morningglory [2]; POSTEMERGENCE, Rate 50 g/ha) | Plant response rating, Morningglory (morningglory [2]; Rate 200 g/ha, POSTEMERGENCE) | Plant response rating, Chickweed (chickweed; PREEMERGENCE, Rate 50 g/ha) | Plant response rating, Chickweed (chickweed; Rate 200 g/ha, PREEMERGENCE)
7: Plant response rating, Crabgrass (crabgrass; POSTEMERGENCE, Rate 200 g/ha) | Plant response rating, Cheatgrass (cheatgrass; POSTEMERGENCE, Rate 200 g/ha) | Plant response rating, Giant foxtail (giant foxtail; Rate 200 g/ha, POSTEMERGENCE) | Plant response rating, Chickweed (chickweed; POSTEMERGENCE, Rate 200 g/ha)
6: Plant response rating, Corn (corn; POSTEMERGENCE, Rate 50 g/ha) | Plant response rating, Crabgrass (crabgrass; POSTEMERGENCE, Rate 50 g/ha) | Plant response rating, Cheatgrass (cheatgrass; PREEMERGENCE, Rate 50 g/ha)

CCN1C(=O)COc2cc(F)c(-c3nn4c(c3Cl)CCCC4)cc21 [Compound 54]
9: Plant response rating, Velvetleaf (velvetleaf; POSTEMERGENCE, Rate 50 g/ha) | Plant response rating, Morningglory (morningglory [2]; POSTEMERGENCE, Rate 10 g/ha) | Plant response rating, Morningglory (morningglory [2]; POSTEMERGENCE, Rate 50 g/ha) | Plant response rating, Chickweed (chickweed; PREEMERGENCE, Rate 10 g/ha)
30: Plant response rating (0 to 100), Barley Igri (barley; POSTEMERGENCE, Rate 1 g/ha)
95: Plant response rating, Soybean (soybean; POSTEMERGENCE, 62 g/ha)
10: Plant response rating (0 to 100), Lambsquarters (lambsquarters; POSTEMERGENCE, Rate 1 g/ha) | Plant response rating Barley Igri (barley; PREEMERGENCE, 62 g/ha) | Plant response rating, Rape (rape; POSTEMERGENCE, Rate 10 g/ha) | Plant response rating, Rape (rape; POSTEMERGENCE, Rate 50 g/ha) | Plant response rating, Velvetleaf (velvetleaf; PREEMERGENCE, Rate 50 g/ha) | Plant response rating, Chickweed (chickweed; POSTEMERGENCE, Rate 50 g/ha) | Plant response rating, Chickweed (chickweed; PREEMERGENCE, Rate 50 g/ha)
75: Plant response rating (0 to 100), Lambsquarters (lambsquarters; Rate 16 g/ha, POSTEMERGENCE)
4: Plant response rating, Giant foxtail (giant foxtail; POSTEMERGENCE, Rate 10 g/ha) | Plant response rating, Giant foxtail (giant foxtail; POSTEMERGENCE, Rate 50 g/ha)
60: Plant response rating (0 to 100), Lambsquarters (lambsquarters; PREEMERGENCE, Rate 4 g/ha) | Plant response rating (0 to 100), Morningglory (morningglory [1]; POSTEMERGENCE, Rate 1 g/ha)
0: Plant response rating (0 to 100), Lambsquarters (lambsquarters; PREEMERGENCE, Rate 1 g/ha) | Plant response rating (0 to 100), Soybean (soybean; PREEMERGENCE, Rate 1 g/ha) | Plant response rating (0 to 100), Soybean (soybean; PREEMERGENCE, Rate 4 g/ha) | Plant response rating (0 to 100), Soybean (soybean; Rate 16 g/ha, PREEMERGENCE) | Plant response rating (0 to 100), Morningglory (morningglory [1]; PREEMERGENCE, Rate 1 g/ha) | Plant response rating (0 to 100), Morningglory (morningglory [1]; PREEMERGENCE, Rate 4 g/ha) | Plant response rating (0 to 100), Morningglory (morningglory [1]; Rate 16 g/ha, PREEMERGENCE) | Plant response rating (0 to 100), Barley Igri (barley; PREEMERGENCE, Rate 1 g/ha) | Plant response rating (0 to 100), Barley Igri (barley; PREEMERGENCE, Rate 4 g/ha) | Plant response rating (0 to 100), Barley Igri (barley; Rate 16 g/ha, PREEMERGENCE) | Plant response rating, Corn (corn; PREEMERGENCE, Rate 50 g/ha) | Plant response rating, Crabgrass (crabgrass; PREEMERGENCE, Rate 10 g/ha) | Plant response rating, Crabgrass (crabgrass; PREEMERGENCE, Rate 50 g/ha) | Plant response rating, Giant foxtail (giant foxtail; PREEMERGENCE, Rate 10 g/ha) | Plant response rating, Barnyardgrass (barnyardgrass; PREEMERGENCE, Rate 10 g/ha)
5: Plant response rating, Cheatgrass (cheatgrass; POSTEMERGENCE, Rate 10 g/ha) | Plant response rating, Barnyardgrass (barnyardgrass; POSTEMERGENCE, Rate 50 g/ha)
85: Plant response rating (0 to 100), Soybean (soybean; Rate 16 g/ha, POSTEMERGENCE)
100: Plant response rating Lambsquarters (lambsquarters; POSTEMERGENCE, 62 g/ha) | Plant response rating Lambsquarters (lambsquarters; PREEMERGENCE, 62 g/ha) | Plant response rating (0 to 100), Lambsquarters (lambsquarters; Rate 16 g/ha, PREEMERGENCE) | Plant response rating, Morningglory (morningglory [1]; POSTEMERGENCE, 62 g/ha) | Plant response rating (0 to 100), Morningglory (morningglory [1]; POSTEMERGENCE, Rate 4 g/ha) | Plant response rating (0 to 100), Morningglory (morningglory [1]; Rate 16 g/ha, POSTEMERGENCE)
6: Plant response rating, Rape (rape; PREEMERGENCE, Rate 50 g/ha)
50: Plant response rating (0 to 100), Lambsquarters (lambsquarters; POSTEMERGENCE, Rate 4 g/ha) | Plant response rating (0 to 100), Soybean (soybean; POSTEMERGENCE, Rate 1 g/ha) | Plant response rating Barley Igri (barley; POSTEMERGENCE, 62 g/ha) | Plant response rating (0 to 100), Barley Igri (barley; Rate 16 g/ha, POSTEMERGENCE)
2: Plant response rating, Crabgrass (crabgrass; POSTEMERGENCE, Rate 10 g/ha)
7: Plant response rating, Cheatgrass (cheatgrass; POSTEMERGENCE, Rate 50 g/ha)
8: Plant response rating, Giant foxtail (giant foxtail; PREEMERGENCE, Rate 50 g/ha) | Plant response rating, Velvetleaf (velvetleaf; POSTEMERGENCE, Rate 10 g/ha)
20: Plant response rating, Morningglory (morningglory [1]; PREEMERGENCE, 62 g/ha)
1: Plant response rating, Cheatgrass (cheatgrass; PREEMERGENCE, Rate 10 g/ha)
40: Plant response rating (0 to 100), Barley Igri (barley; POSTEMERGENCE, Rate 4 g/ha)
65: Plant response rating (0 to 100), Soybean (soybean; POSTEMERGENCE, Rate 4 g/ha)
3: Plant response rating, Corn (corn; POSTEMERGENCE, Rate 10 g/ha) | Plant response rating, Corn (corn; POSTEMERGENCE, Rate 50 g/ha) | Plant response rating, Crabgrass (crabgrass; POSTEMERGENCE, Rate 50 g/ha) | Plant response rating, Cheatgrass (cheatgrass; PREEMERGENCE, Rate 50 g/ha) | Plant response rating, Barnyardgrass (barnyardgrass; POSTEMERGENCE, Rate 10 g/ha) | Plant response rating, Barnyardgrass (barnyardgrass; PREEMERGENCE, Rate 50 g/ha) | Plant response rating, Morningglory (morningglory [2]; PREEMERGENCE, Rate 50 g/ha)
